# In patent US12600726B2, “Antagonists of the muscarinic acetylcholine receptor M4” (Vanderbilt University, priority 2017, dated 2026):
# Experiments:
# Human M4 = biological target: T1, Human M4 (Homo sapiens, UniProt P08173); assay: mAChR M4 cell-based functional calcium flux assay (human M4/Gqi5/CHO cells); conditions: for Emin (human M4): % ACh maximum at 30 μM; for IC50: decrease of the response to an EC80 concentration of acetylcholine
# T1 construct: expressed in transfected cells; host or cells: CHO-K1 (ATCC), stably expressing M4 and Gqi5
# T1 sequence (P08173 1-479): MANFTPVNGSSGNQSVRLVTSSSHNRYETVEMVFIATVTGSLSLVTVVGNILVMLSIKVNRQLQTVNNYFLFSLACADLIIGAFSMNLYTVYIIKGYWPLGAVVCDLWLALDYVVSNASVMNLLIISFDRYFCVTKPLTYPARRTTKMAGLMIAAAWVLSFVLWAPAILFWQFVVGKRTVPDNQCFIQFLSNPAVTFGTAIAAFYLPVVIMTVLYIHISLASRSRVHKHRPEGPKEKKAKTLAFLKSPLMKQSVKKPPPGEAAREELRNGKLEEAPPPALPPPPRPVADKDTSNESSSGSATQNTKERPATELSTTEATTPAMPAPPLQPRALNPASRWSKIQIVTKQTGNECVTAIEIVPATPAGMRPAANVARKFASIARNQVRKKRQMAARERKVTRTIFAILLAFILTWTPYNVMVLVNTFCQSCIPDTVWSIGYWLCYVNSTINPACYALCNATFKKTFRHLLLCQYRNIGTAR
# Summary of the method: (§1)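 CHO-K1 cells stably co-expressing M4 of the given species with chimeric Gqi5 were loaded with Fluo-4 AM and read for calcium flux. Compounds (10-point, 1:3 dilutions) were added first, followed by an acetylcholine EC20 at 143 s and an EC80 at 268 s. IC50 reflects the concentration-dependent fall in the EC80 response, fitted with a four-parameter logistic.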
# Rat M4 = biological target: T2, Rat M4 (Rattus norvegicus, UniProt P08485); assay: mAChR M4 cell-based functional calcium flux assay (rat M4/Gqi5/CHO cells); conditions: for Emin (rat M4): % ACh maximum at 30 μM; for IC50: decrease of the response to an EC80 concentration of acetylcholine
# T2 construct: expressed in transfected cells; host or cells: CHO-K1 (ATCC), stably expressing M4 and Gqi5
# T2 sequence (P08485 1-478): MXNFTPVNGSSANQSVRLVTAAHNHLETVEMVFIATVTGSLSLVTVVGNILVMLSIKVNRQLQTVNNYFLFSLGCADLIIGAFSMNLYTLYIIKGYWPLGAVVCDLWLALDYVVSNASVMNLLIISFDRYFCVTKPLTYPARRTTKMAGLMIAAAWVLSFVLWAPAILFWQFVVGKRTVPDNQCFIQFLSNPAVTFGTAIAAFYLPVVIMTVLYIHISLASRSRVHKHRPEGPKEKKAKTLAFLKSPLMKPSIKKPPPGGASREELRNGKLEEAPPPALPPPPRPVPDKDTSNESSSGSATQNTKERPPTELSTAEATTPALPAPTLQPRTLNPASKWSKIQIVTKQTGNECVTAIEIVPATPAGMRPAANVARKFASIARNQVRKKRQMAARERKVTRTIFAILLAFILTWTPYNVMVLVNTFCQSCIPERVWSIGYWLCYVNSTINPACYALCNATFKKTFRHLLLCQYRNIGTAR
# Summary of the method: as §1
Emin (human M4) (Human M4) [%],IC50 (Human M4) [nM],Emin (rat M4) (Rat M4) [%],IC50 (Rat M4) [nM],Compound
5,33.9,3,257,"c1cc(N2CCOCC2)nnc1NCC1CC12CCN(CC13CC4CC(CC(C4)C1)C3)CC2 (stereo not shown) [Compound 84, N-[[6-(1-adamantylmethyl)-6-azaspiro[2.5]octan-2-yl]methyl]-6-morpholino-pyridazin-3-amine]"
5,265,6,1250,"Cc1nn(C)cc1-c1nnc(NCC2CC23CCN(Cc2ccccc2)CC3)c2ccccc12 (stereo not shown) [Compound 88, N-[(6-benzyl-6-azaspiro[2.5]octan-2-yl)methyl]-4-(1,3-dimethylpyrazol-4-yl)phthalazin-1-amine]"
3,170,4,350,"Cc1nn(C)cc1-c1nnc(NCC2CC23CCN(CC24CC5CC(CC(C5)C2)C4)CC3)c2ccccc12 (stereo not shown) [Compound 89, N-[[6-(1-adamantylmethyl)-6-azaspiro[2.5]octan-2-yl]methyl]-4-(1,3-dimethylpyrazol-4-yl)phthalazin-1-amine]"
4,1.8,6,12.9,"Fc1ccc(Cl)c(-c2ccc(NC[C@@H]3CC34CCN(CC3CCOCC3)CC4)nn2)c1 [Compound 107, (R)-6-(2-chloro-5-fluoro-phenyl)-N-[[6-(tetrahydropyran-4-ylmethyl)-6-azaspiro[2.5]octan-2-yl]methyl]pyridazin-3-amine]"
2,9.89,3,48.1,"Fc1ccc(Cl)c(-c2ccc(NC[C@@H]3CC34CCN(CC3CC5C=CC3C5)CC4)nn2)c1 (stereo partly drawn) [Compound 108, N-(((1R)-6-(bicyclo[2.2.1]hept-5-en-2-ylmethyl)-6-azaspiro[2.5]octan-1-yl)methyl)-6-(2-chloro-5-fluorophenyl)pyridazin-3-amine]"
4,50.6,3,92.1,"Fc1ccc(Cl)c(-c2ccc(NC[C@@H]3CC34CCN(CC3CCCCCC3)CC4)nn2)c1 [Compound 109, (R)-6-(2-chloro-5-fluorophenyl)-N-((6-(cycloheptylmethyl)-6-azaspiro[2.5]octan-1-yl)methyl)pyridazin-3-amine]"
3,2.29,4,39.2,"Fc1ccc(Cl)c(-c2ccc(NC[C@@H]3CC34CCN(CC3CC5CCC3O5)CC4)nn2)c1 (stereo partly drawn) [Compound 110, N-(((1R)-6-((7-oxabicyclo[2.2.1]heptan-2-yl)methyl)-6-azaspiro[2.5]octan-1-yl)methyl)-6-(2-chloro-5-fluorophenyl)pyridazin-3-amine]"

# More lines, now with the values behind:
Compound,Emin (human M4) (Human M4) [%],IC50 (Human M4) [nM],Emin (rat M4) (Rat M4) [%],IC50 (Rat M4) [nM]
"CC(C)(C)CCN1CCC2(CC1)C[C@@H]2CNc1ccc(-c2cc(F)ccc2Cl)nn1 [Compound 66, (S)-6-(2-chloro-5-fluoro-phenyl)-N-[[6-(3,3-dimethylbutyl)-6-azaspiro[2.5]octan-2-yl]methyl]pyridazin-3-amine]",3.50,9.91,3.95,151
"Fc1ccc(Cl)c(-c2ccc(NC[C@H]3CC34CCN(CC3CCCCC3)CC4)nn2)c1 [Compound 67, (S)-6-(2-chloro-5-fluoro-phenyl)-N-[[6-(cyclohexylmethyl)-6-azaspiro[2.5]octan-2-yl]methyl]pyridazin-3-amine]",3.66,27.8,4.36,527
"Fc1ccc(Cl)c(-c2ccc(NCC3CC34CCN(CC3CC5C=CC3C5)CC4)nc2)c1 (stereo not shown) [Compound 68, N-[[6-(5-bicyclo[2.2.1]hept-2-enylmethyl)-6-azaspiro[2.5]octan-2-yl]methyl]-5-(2-chloro-5-fluoro-phenyl)pyridin-2-amine]",4.04,495,4.48,1500
"CC(C)(C)CCN1CCC2(CC1)CC2CNc1ccc(-c2cc(F)ccc2Cl)cn1 (stereo not shown) [Compound 69, 5-(2-chloro-5-fluoro-phenyl)-N-[[6-(3,3-dimethylbutyl)-6-azaspiro[2.5]octan-2-yl]methyl]pyridin-2-amine]",4.09,749,4.18,1800
"Cc1nn(C)cc1-c1ccc(NCC2CC23CCN(CC2CC4C=CC2C4)CC3)nc1 (stereo not shown) [Compound 70, N-[[6-(5-bicyclo[2.2.1]hept-2-enylmethyl)-6-azaspiro[2.5]octan-2-yl]methyl]-5-(1,3-dimethylpyrazol-4-yl)pyridin-2-amine]",3.29,45.2,3.96,170
"C1=CC2CC1CC2CN1CCC2(CC1)CC2CNc1ncc(-c2ccccc2)s1 (stereo not shown) [Compound 71, N-[[6-(5-bicyclo[2.2.1]hept-2-enylmethyl)-6-azaspiro[2.5]octan-2-yl]methyl]-5-phenyl-thiazol-2-amine]",4.74,1270,4.72,833
"CC(C)(C)CCN1CCC2(CC1)CC2CNc1ncc(-c2ccccc2)s1 (stereo not shown) [Compound 72, N-[[6-(3,3-dimethylbutyl)-6-azaspiro[2.5]octan-2-yl]methyl]-5-phenyl-thiazol-2-amine]",4.42,1260,4.86,779
"c1ccc(-c2cnc(NCC3CC34CCN(CC3CCOCC3)CC4)s2)cc1 (stereo not shown) [Compound 73, 5-phenyl-N-[[6-(tetrahydropyran-4-ylmethyl)-6-azaspiro[2.5]octan-2-yl]methyl]thiazol-2-amine]",8.96,6550,9.84,3090
"CC(C)(C)CCN1CCC2(CC1)CC2CNc1ccc(N2CCC(F)(F)C2)nn1 (stereo not shown) [Compound 75, 6-(3,3-difluoropyrrolidin-1-yl)-N-((6-(3,3-dimethylbutyl)-6-azaspiro[2.5]octan-1-yl)methyl)pyridazin-3-amine]",4,41.2,5,114
"Cc1cnn(C)c1-c1ccc(N(C)CC2CC23CCN(CCC(C)(C)C)CC3)nn1 (stereo not shown) [Compound 76, 6-(1,4-dimethyl-1H-pyrazol-5-yl)-N-((6-(3,3-dimethylbutyl)-6-azaspiro[2.5]octan-1-yl)methyl)-N-methylpyridazin-3-amine]",4,99.6,7,693
"CC(C)(C)CCN1CCC2(CC1)CC2CNc1ccc(N2CCOCC2)nn1 (stereo not shown) [Compound 79, N-[[6-(3,3-dimethylbutyl)-6-azaspiro[2.5]octan-2-yl]methyl]-6-morpholino-pyridazin-3-amine]",5,5,5,13.9
"CC(C)(C)CCN1CCC2(CC1)CC2CNc1ccc(N2CCC(F)(F)CC2)nn1 (stereo not shown) [Compound 80, 6-(4,4-difluoro-1-piperidyl)-N-[[6-(3,3-dimethylbutyl)-6-azaspiro[2.5]octan-2-yl]methyl]pyridazin-3-amine]",3,39.8,3,93.4
"CC(C)(C)CCN1CCC2(CC1)CC2CNc1ccc(N2CCCC2)nn1 (stereo not shown) [Compound 81, N-[[6-(3,3-dimethylbutyl)-6-azaspiro[2.5]octan-2-yl]methyl]-6-pyrrolidin-1-yl-pyridazin-3-amine]",4,85.2,4,307
"C1=CC2CC1CC2CN1CCC2(CC1)CC2CNc1ccc(N2CCOCC2)nn1 (stereo not shown) [Compound 82, N-[[6-(5-bicyclo[2.2.1]hept-2-enylmethyl)-6-azaspiro[2.5]octan-2-yl]methyl]-6-morpholino-pyridazin-3-amine]",3,5.06,6,48.2
"c1cc(N2CCOCC2)nnc1NCC1CC12CCN(CC1CCCCC1)CC2 (stereo not shown) [Compound 83, N-[[6-(cyclohexylmethyl)-6-azaspiro[2.5]octan-2-yl]methyl]-6-morpholino-pyridazin-3-amine]",6,33.5,7,362
